Measured values: article PMC3685178 (Chemical communications (Cambridge, England), 2013)

Test system: MCF-7 tumour cells
Format: cell-based, human
Settings: MCF-7, 50 nM, 48 h exposure; cells larger in size, characteristic of G2-M arrest

Question: For `CC(=O)O[C@H]1C(=O)[C@@]2(C)[C@H]([C@H](OC(=O)c3ccccc3)[C@]3(O)C[C@H](OC(=O)[C@H](O)[C@@H](NC(=O)c4ccccc4)c4ccccc4)C(C)=C1C3(C)C)[C@]1(OC(C)=O)CO[C@@H]1C[C@@H]2O` [PTX, paclitaxel], which “cell populations in live/dead assay” value is on record?
Answer: Its value is “significantly reduced”.
